Tests used:
CBF1 = target: T1, CBF1 (Homo sapiens, UniProt Q06330); test: Coimmunoprecipitation of CBF1 with NIC-1 from K562 cell lysates; format: binding; settings: K562 cells, retroviral infection
T1 construct: endogenous in cells; host or cells: K562 cells retrovirally infected with NIC-1 expression vectors
Description: Retroviral Infection—Modified 293 human embryonic kidney cells were grown in 10 cm dishes until they were subconfluent and were cotransfected with plasmid DNA (15 μg) and pMD.G (6 μg) by the calcium phosphate transfection method as described previously (55). The medium was changed once after 10 h of transfection to remove the calcium phosphate. The pMD.G expression vector encodes the viral envelope protein VSV-G. The modified 293 cells were previously stably transfected with pol and gag genes (gift of Shigeki Miyamoto, University of Wisconsin Medical School). After additional incubation for 12 h, the medium was removed and K562 cells (10 ml, 3×10^5/ml) were added with polybrene (4 μg/ml) in complete IMEM and incubated for 36 h. The infected cells were separated from adherent 293 cells and then subjected to immunoprecipitation analysis.
Western Blotting—To detect the expression of Myc-tagged wild type NIC-1 and NIC-1 mutants, whole cell lysates were prepared in Nonidet P-40 lysis buffer (50 mM Hepes, pH 7.4, 1 mM EDTA, 150 mM NaCl, 10% glycerol, 1% Nonidet P-40, 2 mM DTT, 0.2 mM phenylmethanesulfonyl fluoride, and 20 μg/ml leupeptin). […] The proteins were transferred to an Immobilon P membrane (Millipore) and detected by immunoblotting with the anti-Myc tag monoclonal antibody 9E10. CBF1 was detected by immunoblotting with anti-CBF1 polyclonal antisera (Lam & Bresnick, unpublished data).

ERK1/2 = test: Western blot with phospho-specific antibodies, ERK1/2; format: cell-based, human; settings: K562-NIC-1 versus K562-Babe, 5 nM TPA 30 min
Description: Stable Transfection—K562 cells were stably transfected by electroporation with a Bio-Rad Gene pulser electroporator. Cells (5×10^6) were washed with ice-cold PBS, resuspended in 0.5 ml of ice-cold PBS, mixed with 5 μg linearized plasmid DNA, and subjected to electroporation (960 microfarad; 220 V) in a 0.4 cm-wide electroporation cuvette (BTX). pBabe and pNIC-1 were linearized with NotI. Cells were then added to 20 ml of complete IMEM, grown for 48 h, and diluted in complete IMEM containing 1.5 μg/ml puromycin (pools of K562-Babe and K562-NIC-1 cells). Stably transfected cells were analyzed for erythroid differentiation as soon as the pools were generated by benzidine staining to reduce the probability of phenotypic changes that may result from prolonged growth.
To measure the phosphorylation state of components of the MAPK pathway, K562-Babe and K562-NIC-1 cells (1×10^6) were collected after treatment with 5 nM TPA or DMSO for 30 min. Cells were washed once with ice-cold PBS, cell pellets were resuspended in 30 μl ice-cold PBS and were immediately boiled in 70 μl SDS sample buffer for 10 min. Proteins (10 μl) were resolved by SDS-PAGE on a 10% acrylamide gel and transferred to Immobilon P membrane (Millipore). […] Antigen-antibody complexes were detected with ECL Plus™ (Amersham Life Science) according to manufacturer's instructions.

AP-1 = test: EMSA of AP-1 DNA binding activity in nuclear extracts; set-up: species or system human; settings: 5 nM TPA 2 hours, nuclear extracts
Description: K562-Babe and K562-NIC-1 cells were harvested by centrifugation for 10 min at 150×g. Cells were washed once with ice-cold PBS and resuspended in 1.5 volumes of nuclei lysis buffer (10 mM Tris-HCl, pH 7.5, 10 mM NaCl, 3 mM MgCl2, and 0.2% Nonidet P-40) on ice for 3 min. Nuclei were collected by centrifugation for 5 min at 600×g. Nuclei were washed by gentle resuspension in 1.5 volumes of nuclei wash buffer (10 mM Tris-HCl, pH 7.5, 10 mM NaCl, and 3 mM MgCl2) and then collected by centrifugation for 4 min at 600×g. […] Nuclei were extracted for 45 min at 4° C. with constant mixing. The suspension was then centrifuged for 30 min at 150,000×g. Aliquots of the supernatant were frozen on dry ice and stored at -80° C. The protein concentration as measured by the Bradford assay, with y-globulin as a standard ranged from 4 to 10 mg/ml. DTT (5 mM), phenylmethanesulfonyl fluoride (0.5 mM), leupeptin (20 μg/ml), β-glycerophosphate (800 μM), sodium vanadate (1 mM), and sodium molybdate (50 μM) were included in all buffers. Electrophoretic Mobility Shift Assay-EMSA assays were done as described previously (54). AP-1 DNA binding activity was measured by EMSA with a double-stranded end-labeled oligonucleotide [NT] containing a high affinity AP-1 binding site. […] DNA binding activity was quantitated by PhosphorImager analysis with ImageQuant software (Molecular Dynamics).

T1 sequence (Q06330 whole entry): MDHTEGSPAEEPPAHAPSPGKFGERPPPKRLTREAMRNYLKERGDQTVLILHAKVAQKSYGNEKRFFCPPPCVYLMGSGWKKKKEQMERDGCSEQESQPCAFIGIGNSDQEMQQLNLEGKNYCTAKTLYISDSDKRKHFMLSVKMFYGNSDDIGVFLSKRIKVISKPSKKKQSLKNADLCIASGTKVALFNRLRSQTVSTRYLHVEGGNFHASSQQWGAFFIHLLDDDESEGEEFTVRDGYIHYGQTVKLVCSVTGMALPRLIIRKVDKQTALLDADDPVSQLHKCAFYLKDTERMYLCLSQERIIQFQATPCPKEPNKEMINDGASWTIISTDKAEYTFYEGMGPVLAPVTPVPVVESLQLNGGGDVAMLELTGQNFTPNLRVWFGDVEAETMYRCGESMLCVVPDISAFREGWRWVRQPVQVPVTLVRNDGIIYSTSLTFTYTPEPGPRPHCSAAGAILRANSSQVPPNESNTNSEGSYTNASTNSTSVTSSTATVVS

**Q.** With “NIC-1: constitutively active Notch-1 intracellular domain, amino acids 1759-2556 of human Notch-1 with carboxyl-terminal Myc tag, expressed from pBabe-NIC-1” as the substance, how does the “recovery of CBF1 in anti-NIC-1 immunoprecipitates” value (CBF1) read?
**A.** coimmunoprecipitated

**Q.** What about the “basal and TPA-induced ERK1/2 phosphorylation” value (ERK1/2) of the same substance?
**A.** slightly higher

**Q.** What about the “AP-1 complexes formed with extracts from K562-NIC-1 versus K562-Babe cells” value (AP-1) of the same substance?
**A.** no apparent qualitative or quantitative differences

From patent publication US20030148954A1, “Agents and methods for modulating activator protein-1-mediated cellular processes” (Wisconsin Alumni Research Foundation, priority 2001, published 2003)
